According to US11229636B2, “Substituted tetrahydroquinolinone compounds as ROR gamma modulators” (Aurigene Discovery Technologies Limited, priority 2015, dated 2022):

How the values were obtained:
[1] = target: ROR gamma ligand binding domain (Homo sapiens (Human), UniProt P51449); assay: ROR gamma luciferase reporter assay (GAL4-ROR gamma LBD, HEK293 cells); type: cell-based; conditions: 48 hours treatment, read-out: RORγ luciferase Reporter assay: IC50 (nM) (in range)
Method: The Ligand Binding Domain (LBD) of ROR gamma was cloned into pFN26A (BIND) hRluc-neo Flexi vector (Promega) which expresses a fusion protein comprised of a DNA binding domain of the yeast GAL4 gene, a linker segment and ROR gamma ligand binding domain. For the reporter assay 0.02×10^6 HEK293 cells were seeded per well in a 96 well plate in complete media and incubated overnight in an incubator with 5% CO2 at 37° C. before transfection. Cells were then co-transfected with pFN26A hRluc-neo Flexi vector containing the LBD of ROR gamma and pGL4.35 [luc2P/9XGAL4 UAS/Hygro] Vector (Promega) in low serum media. Post transfection and recovery, cells were treated with the test compounds for 48 hours. The assay was terminated using the Bright-Glo Luciferase assay system from Promega and the Luminescence was measured using a luminescence reader. The luminescence values were used to calculate the potency of the compounds.

RORγ LBD = RORγ LBD (Homo sapiens (Human), UniProt P51449); assay: ROR gamma radio-ligand binding assay (3H 25-Hydroxycholesterol competitive displacement, dextran charcoal method); conditions: for inhibition at 1 µM: 1 μM compound; for inhibition at 10 µM: 10 μM compound; for IC50: in range
Chain of RORγ LBD (P51449 268-518): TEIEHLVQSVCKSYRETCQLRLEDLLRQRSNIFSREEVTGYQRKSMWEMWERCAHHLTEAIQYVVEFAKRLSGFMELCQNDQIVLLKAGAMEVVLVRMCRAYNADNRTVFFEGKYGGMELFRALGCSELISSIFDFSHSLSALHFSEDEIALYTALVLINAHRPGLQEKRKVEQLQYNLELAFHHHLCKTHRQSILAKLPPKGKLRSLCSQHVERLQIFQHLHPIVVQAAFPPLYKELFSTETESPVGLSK
Method: Gene corresponding to the ligand binding domain of RORγ (247-497 amino acids) was sub-cloned into pGEX4T1 vector. Transformants of E. coli BL21 (DE3) containing pGEX4T1-RORγ (247-497) were grown to an OD of 0.8 at 37° C. and induced with 0.5 mM isopropyl-β-D-thiogalactopyranoside (IPTG) for 18 hours at 18° C. Cells were harvested and resuspended in 20 mM Tris-HCl (pH 8.5), 0.3 M NaCl, 10% Glycerol, 2 mM β-Me (β-Mercaptoethanol), 2 mM CHAPS, protease inhibitors, 0.6 mM PMSF and Lysozyme. Supernatant of lysate was passed through glutathione sepharose 4B affinity beads (GE health care) pre-equilibrated with 20 mM Tris-HCl (pH 8.5), 0.3 M NaCl, 10% Glycerol, 2 mM β-Me. RORγ was eluted using a gradient of reduced glutathione (3-20 mM). Fractions containing RORγ protein were pooled, concentrated and passed through Superdex 75 gel filtration (GE health care) column equilibrated with 20 mM Na-phosphate pH 8.0, 0.2 M NaCl, 10% glycerol. The peak fractions from gel filtration column were pooled and stored at −80° C. for Binding assay.
ROR gamma radioligand binding was performed using ^3H 25-Hydroxycholesterol in a competitive displacement assay using dextran charcoal method. Using 5 nM ^3H 25-Hydroxycholesterol with 300 ng RORγ LBD (in house expressed in E. coli) along with the compound were incubated in the binding buffer (50 mM HEPES, pH 7.5, 150 mM NaCl, 0.01% BSA and 5 mM MgCl2) for 30 min at room temperature. Then dextran-charcoal mixture (0.5% charcoal: 0.05% dextran) was used for separation and the supernatant was read on the Perkin Elmer Trilux Microbeta counter. Dose response curves were generated for 10 compound concentrations using GraphPad Prism software Version 5 (San Diego, Calif., USA) using non-linear regression curve fit for sigmoidal dose response (variable slope).

Chain of ROR gamma ligand binding domain (P51449 269-508): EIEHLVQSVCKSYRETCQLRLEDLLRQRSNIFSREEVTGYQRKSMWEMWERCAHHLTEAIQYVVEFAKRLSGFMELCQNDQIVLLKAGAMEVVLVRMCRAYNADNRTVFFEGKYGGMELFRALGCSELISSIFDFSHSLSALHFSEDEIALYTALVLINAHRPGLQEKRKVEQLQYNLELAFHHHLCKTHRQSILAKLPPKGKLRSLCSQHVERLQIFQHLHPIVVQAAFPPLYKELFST

IC50 [1]	inhibition at 1 µM (RORγ LBD)	inhibition at 10 µM (RORγ LBD)	IC50 (RORγ LBD)	Structure (SMILES)
< 100 nM				CCS(=O)(=O)c1ccc(CC(=O)Nc2ccc3c(n2)CCC(C)(c2nccn4c(C)cnc24)C3=O)cc1 (single isomer, unassigned) [compound 113, 2-(4-(ethylsulfonyl)phenyl)-N-(6-methyl-6-(3-methylimidazo[1,2-a]pyrazin-8-yl)-5-oxo-5,6,7,8-tetrahydroquinolin-2-yl)acetamide]
> 500 nM				CCS(=O)(=O)c1ccc(CC(=O)Nc2ccc3c(n2)CCC(C)(c2nccn4c(C)cnc24)C3=O)cc1 (single isomer, unassigned) [compound 114, 2-(4-(ethylsulfonyl)phenyl)-N-(6-methyl-6-(3-methylimidazo[1,2-a]pyrazin-8-yl)-5-oxo-5,6,7,8-tetrahydroquinolin-2-yl)acetamide]
< 100 nM				CCS(=O)(=O)c1ccc(CC(=O)Nc2ccc3c(n2)CCC(C)(c2cc(OC)nc(C)n2)C3=O)cc1 (single isomer, unassigned) [compound 115, 2-(4-(ethylsulfonyl)phenyl)-N-(6-(6-methoxy-2-methylpyrimidin-4-yl)-6-methyl-5-oxo-5,6,7,8-tetrahydroquinolin-2-yl)acetamide]
> 500 nM				CCS(=O)(=O)c1ccc(CC(=O)Nc2ccc3c(n2)CCC(C)(c2cc(OC)nc(C)n2)C3=O)cc1 (single isomer, unassigned) [compound 116, 2-(4-(ethylsulfonyl)phenyl)-N-(6-(6-methoxy-2-methylpyrimidin-4-yl)-6-methyl-5-oxo-5,6,7,8-tetrahydroquinolin-2-yl)acetamide]
> 500 nM				CCS(=O)(=O)c1ccc(CC(=O)Nc2ccc3c(n2)CCC(C)(c2nc(C)cn4ccnc24)C3=O)cc1 (single isomer, unassigned) [compound 117, 2-(4-(ethylsulfonyl)phenyl)-N-(6-methyl-6-(6-methylimidazo[1,2-a]pyrazin-8-yl)-5-oxo-5,6,7,8-tetrahydroquinolin-2-yl)acetamide]
< 100 nM				CCS(=O)(=O)c1ccc(CC(=O)Nc2ccc3c(n2)CCC(C)(c2nc(C)cn4ccnc24)C3=O)cc1 (single isomer, unassigned) [compound 118, 2-(4-(ethylsulfonyl)phenyl)-N-(6-methyl-6-(6-methylimidazo[1,2-a]pyrazin-8-yl)-5-oxo-5,6,7,8-tetrahydroquinolin-2-yl)acetamide]
> 500 nM				CCS(=O)(=O)c1ccc(CC(=O)Nc2ccc3c(n2)CCC(C)(c2cc(C)nc(C)n2)C3=O)nc1 (single isomer, unassigned) [compound 123, N-(6-(2,6-dimethylpyrimidin-4-yl)-6-methyl-5-oxo-5,6,7,8-tetrahydroquinolin-2-yl)-2-(5-(ethylsulfonyl)pyridin-2-yl)acetamide]
	98%	98%	150 to 300 nM	CCS(=O)(=O)c1ccc(CC(=O)Nc2cc(C)c3c(n2)CCC(C)(c2cccc(OC)n2)C3=O)cc1 (centres unmarked) [Compound 19, 2-(4-(ethylsulfonyl)phenyl)-N-(6-(6-methoxypyridin-2-yl)-4,6-dimethyl-5-oxo-5,6,7,8-tetrahydroquinolin-2-yl)acetamide]
	94%	92%	< 150 nM	CCS(=O)(=O)c1ccc(CC(=O)Nc2cc(C)c3c(n2)CCC(C)(c2ccc4c(c2)OCO4)C3=O)cc1 (centres unmarked) [Compound 42, N-(6-(benzo[d][1,3]dioxol-5-yl)-4,6-dimethyl-5-oxo-5,6,7,8-tetrahydroquinolin-2-yl)-2-(4-(ethylsulfonyl)phenyl)acetamide]
	82%		< 150 nM	CCS(=O)(=O)c1ccc(CC(=O)Nc2cc(C)c3c(n2)CCC(C)(c2ccc4c(c2)ncn4C)C3=O)cc1 (centres unmarked) [Compound 43, N-(4,6-dimethyl-6-(1-methyl-1H-benzo[d]imidazol-5-yl)-5-oxo-5,6,7,8-tetrahydroquinolin-2-yl)-2-(4-(ethylsulfonyl)phenyl)acetamide]
	56%	92%	> 300 nM	CCS(=O)(=O)c1ccc(CC(=O)Nc2ccc3c(n2)CCC(C)(n2nc(C)cc2C)C3=O)cc1 (centres unmarked) [Compound 46, N-(6-(3,5-dimethyl-1H-pyrazol-1-yl)-6-methyl-5-oxo-5,6,7,8-tetrahydroquinolin-2-yl)-2-(4-(ethylsulfonyl)phenyl)acetamide]
	82%	98%	< 150 nM	CCS(=O)(=O)c1ccc(CC(=O)Nc2cc(C)c3c(n2)CCC(C)(n2cccn2)C3=O)cc1 (centres unmarked) [Compound 47]
	90%	74%	< 150 nM	CCS(=O)(=O)c1ccc(CC(=O)Nc2cc(C)c3c(n2)CCC(C)(c2ncc(OC)cn2)C3=O)cc1 (centres unmarked) [Compound 61, 2-(4-(ethylsulfonyl)phenyl)-N-(6-(5-methoxypyrimidin-2-yl)-4,6-dimethyl-5-oxo-5,6,7,8-tetrahydroquinolin-2-yl)acetamide]
	82%	100%	150 to 300 nM	CCS(=O)(=O)c1ccc(CC(=O)Nc2cc(C)c3c(n2)CCC(C)(c2cccnc2O)C3=O)cc1 (centres unmarked) [Compound 84, 2-(4-(ethylsulfonyl)phenyl)-N-(6-(2-hydroxypyridin-3-yl)-4,6-dimethyl-5-oxo-5,6,7,8-tetrahydroquinolin-2-yl)acetamide]
	62%	95%	> 300 nM	CCS(=O)(=O)c1ccc(CC(=O)Nc2cc(C)c3c(n2)CCC(C)(c2ncccc2O)C3=O)cc1 (centres unmarked) [Compound 85, 2-(4-(ethylsulfonyl)phenyl)-N-(6-(3-hydroxypyridin-2-yl)-4,6-dimethyl-5-oxo-5,6,7,8-tetrahydroquinolin-2-yl)acetamide]
	72%	100%	< 150 nM	CCS(=O)(=O)c1ccc(CC(=O)Nc2cc(C)c3c(n2)CCC(C)(c2c(C)ccnc2O)C3=O)cc1 (centres unmarked) [Compound 86, 2-(4-(ethylsulfonyl)phenyl)-N-(6-(2-hydroxy-4-methylpyridin-3-yl)-4,6-dimethyl-5-oxo-5,6,7,8-tetrahydroquinolin-2-yl)acetamide]
	82%	99%	150 to 300 nM	CCS(=O)(=O)c1ccc(CC(=O)Nc2ccc3c(n2)CC(C)(C)C(c2ncccc2O)C3=O)cc1 (centres unmarked) [Compound 87, 2-(4-(ethylsulfonyl)phenyl)-N-(6-(3-hydroxypyridin-2-yl)-7,7-dimethyl-5-oxo-5,6,7,8-tetrahydroquinolin-2-yl)acetamide]
	51%	42%		CCc1cc(C2(C)CCc3nc(NC(=O)Cc4ccc(S(=O)(=O)CC)cc4)ccc3C2=O)nc(C)n1 (centres unmarked) [Compound-131]
	90%	104%	< 150 nM	CCS(=O)(=O)c1ccc(CC(=O)Nc2cc(C)c3c(n2)CCC(C)(c2cc(C)nc(OC)n2)C3=O)cc1 (centres unmarked) [Compound-135, 2-(4-(ethylsulfonyl)phenyl)-N-(6-(2-methoxy-6-methylpyrimidin-4-yl)-4,6-dimethyl-5-oxo-5,6,7,8-tetrahydroquinolin-2-yl)acetamide]
	79%	110%	< 150 nM	CCS(=O)(=O)c1ccc(CC(=O)Nc2cc3c(cn2)C(=O)C(C)(c2cc(C)nc(C)n2)CC3)cc1 (centres unmarked) [compound 128, N-(7-(2,6-dimethylpyrimidin-4-yl)-7-methyl-8-oxo-5,6,7,8-tetrahydroisoquinolin-3-yl)-2-(4-(ethylsulfonyl)phenyl)acetamide]
	99%	103%	< 150 nM	CCc1nc(C)cc(C2(C)CCc3nc(NC(=O)Cc4ccc(S(=O)(=O)CC)cc4)ccc3C2=O)n1 (centres unmarked) [compound 132, N-(6-(2-ethyl-6-methylpyrimidin-4-yl)-6-methyl-5-oxo-5,6,7,8-tetrahydroquinolin-2-yl)-2-(4-(ethylsulfonyl)phenyl)acetamide]
	96%	109%	< 150 nM	CCc1cc(C2(C)CCc3nc(NC(=O)Cc4ccc(S(=O)(=O)CC)cc4)ccc3C2=O)nc(CC)n1 (centres unmarked) [compound 133, N-(6-(2,6-diethylpyrimidin-4-yl)-6-methyl-5-oxo-5,6,7,8-tetrahydroquinolin-2-yl)-2-(4-(ethylsulfonyl)phenyl)acetamide]
